From patent US4670461A, “Formaldehyde derivatives of mitindomide” (priority 1984, dated 1987)
Where a name gives a salt, the structure may show the parent alone.

Columns and labels:
[1] = Water solubility; type: physicochemical; settings: water
[2] = tested on: L1210 leukemia; assay: IP implanted L1210 leukemia in mice (CD2F1); type: in vivo
[3] = tested on: P388; assay: IP P388, Days 1-9 (NCI murine test system); type: in vivo; settings: IP P388, Days 1-9, dose 68.8
Method: Anti-tumor or anti-neoplastic activity of the novel derivatives of the present invention is determined by using the murine test system for screening anti-cancer compounds as standardized by the National Cancer Institute, Bethesda, Md., U.S.A., and described in Cancer Chemotherapy Reports, 3 (2) 1-103 (1972) which publication is incorporated herein by reference.
It is noted that although the intraperitoneal mode of administration of the novel derivatives is preferred, other modes of parenteral administration, e.g. subcutaneous, intravenous, etc., are, of course, possible and included within the purview of this invention. Similarly, although water has been used as a vehicle for the administration of the compounds of the present invention, other pharmaceutically acceptable vehicles, e.g. saline, buffers, and other aqueous media may also be used for the administration of these compounds together with adjuvants, agents or additives commonly employed in the preparation of pharmaceutical compositions. Examples of such agents, additives and adjuvants that may be employed are listed in Instruction 14, Screening Data Summary Interpretation and Outline of Clinical Screen. Drug Evaluation Branch, NCI. and are incorporated herein by reference.

[4] = tested on: L1210 leukemia; assay: S.C. implanted L1210 leukemia in mice (CD2F1); type: in vivo
Source text: ^a Experimental formulation of mitindomide was used (NaOH + manitol).

[5] = 24.8 mg/kg IP days 1-9, Expt. 1
[6] = 24.8 mg/kg IP days 1-9, Expt. 2
[7] = 24.8 mg/kg IP days 1-9, Expt. 3
[8] = 41.3 mg/kg IP days 1-9, Expt. 1
[9] = 41.3 mg/kg IP days 1-9, Expt. 2
[10] = 41.3 mg/kg IP days 1-9, Expt. 3
[11] = 68.8 mg/kg IP days 1-9, Expt. 1
[12] = 68.8 mg/kg IP days 1-9, Expt. 2
[13] = 68.8 mg/kg IP days 1-9, Expt. 3
[14] = 114.7 mg/kg IP days 1-9, Expt. 1
[15] = 114.7 mg/kg IP days 1-9, Expt. 2
[16] = 114.7 mg/kg IP days 1-9, Expt. 3
[17] = 24.8 mg/kg ip days 1-9, Expt. 1
[18] = 24.8 mg/kg ip days 1-9, Expt. 2
[19] = 41.3 mg/kg ip days 1-9, Expt. 1
[20] = 41.3 mg/kg ip days 1-9, Expt. 2
[21] = 68.8 mg/kg ip days 1-9, Expt. 1
[22] = 68.8 mg/kg ip days 1-9, Expt. 2
[23] = 114.7 mg/kg ip days 1-9, Expt. 1

For `CN1CCN(CN2C(=O)C3C4C=CC(C3C2=O)C2C3C(=O)N(CN5CCN(C)CC5)C(=O)C3C42)CC1` (centres unmarked) [Example 4, 4,8-Ethenopyrrolo[3',4':3,4]cyclobut[1,2-f]isoindole-1,3,5,7(2H,6H)-tetrone,3a,3b,4,4a,7a,8,8a,8b-octahydro-2,6-bis(N-methylpiperazinomethyl)di-hydrochloride], the “H2O Sol. % (g per 100 ml H2O)” value [1] was 10 % (g per 100 ml H2O), the ILS [2, 5] was 2% and the MST [2, 5] was 8.9 days. The “Wt. Change” value [2, 5] was 2.5 g, the ILS [2, 6] was 5% and the MST [2, 6] was 8.4 days. The “Wt. Change” value [2, 6] was 0.8 g, the ILS [2, 7] was 9% and the MST [2, 7] was 9.0 days. For the same molecule, the “Wt. Change” value [2, 7] was 0.3 g, the ILS [2, 8] was 24% and the MST [2, 8] was 10.8 days. The “Wt. Change” value [2, 8] was 1.4 g, the ILS [2, 9] was 47% and the MST [2, 9] was 11.8 days. For the same molecule, the “Wt. Change” value [2, 9] was -2.6 g, the ILS [2, 10] was 34% and the MST [2, 10] was 11.0 days. The “Wt. Change” value [2, 10] was -1.5 g, the ILS [2, 11] was 83% and the MST [2, 11] was 16.0 days. The “Wt. Change” value [2, 11] was -1.7 g, the ILS [2, 12] was 78% and the MST [2, 12] was 14.3 days. For the same molecule, the “Wt. Change” value [2, 12] was -4.1 g, the ILS [2, 13] was 119% and the MST [2, 13] was 18.0 days. The “Wt. Change” value [2, 13] was -3.2 g, the ILS [2, 14] was 3% and the MST [2, 14] was 9.0 days. The “Wt. Change” value [2, 14] was -2.6 g, the ILS [2, 15] was 110% and the MST [2, 15] was 16.8 days. The “Wt. Change” value [2, 15] was -5.3 g, the ILS [2, 16] was 143% and the MST [2, 16] was 20.0 days. The “Wt. Change” value [2, 16] was -4.6 g, the “Wt. Change” value ([2]; 191.2 mg/kg IP days 1-9, Expt. 3) was -7.1 g and the T/C [3] was 172. The ILS [4, 17] was 18%, the MST [4, 17] was 9.7 days and the “Wt. Change” value [4, 17] was -0.2 g. For the same molecule, the ILS [4, 18] was 12%, the MST [4, 18] was 12.0 days and the “Wt. Change” value [4, 18] was 0.3 g. For the same molecule, the ILS [4, 19] was 50%, the MST [4, 19] was 12.3 days and the “Wt. Change” value [4, 19] was -1.6 g. The ILS [4, 20] was 21%, the MST [4, 20] was 13.0 days and the “Wt. Change” value [4, 20] was -1.5 g. For the same molecule, the ILS [4, 21] was 74%, the MST [4, 21] was 14.3 days and the “Wt. Change” value [4, 21] was -4.2 g. The ILS [4, 22] was 58%, the MST [4, 22] was 17.0 days and the “Wt. Change” value [4, 22] was -2.9 g. The ILS [4, 23] was 135%, the MST [4, 23] was 19.3 days and the “Wt. Change” value [4, 23] was -4.7 g. For the same molecule, the “Wt. Change” value ([4]; 114.7 mg/kg ip days 1-9, Expt. 2) was -4.0 g and the “Wt. Change” value ([4]; 191.2 mg/kg ip days 1-9, Expt. 2) was -6.6 g.
